According to the NIST ThermoML archive (doi:10.1016/j.jct.2017.02.023):

Legend:
[1] = xn = mol fraction of the nth substance listed; details: 81.5 kPa, Liquid, Vibrating tube method
[2] = refractive index (Na D-line) (dimensionless); xn = mol fraction of the nth substance listed; details: 81.5 kPa, Liquid, Standard Abbe refractometry

CNC1CCCCC1 [N-methylcyclohexylamine] + CC(C)O
Details	mass density, 298.15 K [kg/m3]	mass density, 308.15 K [kg/m3]	mass density, 318.15 K [kg/m3]	mass density, 328.15 K [kg/m3]	refractive index, 298.15 K	refractive index, 308.15 K	refractive index, 318.15 K	refractive index, 328.15 K
[1], x2 = 0	865.2	856.57	847.67	838.68	–	–	–	–
[1], x2 = 0.159	860.12	851.49	842.65	833.57	–	–	–	–
[1], x2 = 0.2745	855.75	847.1	838.18	828.82	–	–	–	–
[1], x2 = 0.3856	850.26	841.55	832.63	823.19	–	–	–	–
[1], x2 = 0.4867	843.79	835.1	826.14	816.62	–	–	–	–
[1], x2 = 0.5738	836.95	828.24	819.27	809.59	–	–	–	–
[1], x2 = 0.6539	829.55	820.8	811.84	802	–	–	–	–
[1], x2 = 0.7253	822.01	813.27	804.23	794.36	–	–	–	–
[1], x2 = 0.7904	814.28	805.54	796.65	786.58	–	–	–	–
[1], x2 = 0.85	806.34	797.64	788.79	778.81	–	–	–	–
[1], x2 = 0.904	798.29	789.69	780.82	770.72	–	–	–	–
[1], x2 = 0.9541	789.83	781.27	772.4	762.26	–	–	–	–
[2], x2 = 0	–	–	–	–	1.45306	1.44812	1.4431	1.43809
[2], x2 = 0.159	–	–	–	–	1.4471	1.44293	1.43862	1.43418
[2], x2 = 0.2745	–	–	–	–	1.44224	1.43814	1.43386	1.42939
[2], x2 = 0.3856	–	–	–	–	1.43655	1.43263	1.42854	1.4242
[2], x2 = 0.4867	–	–	–	–	1.43021	1.42642	1.42248	1.41824
[2], x2 = 0.5738	–	–	–	–	1.42372	1.41996	1.41606	1.41185
[2], x2 = 0.6539	–	–	–	–	1.41688	1.41311	1.4092	1.40495
[2], x2 = 0.7253	–	–	–	–	1.41003	1.40629	1.40239	1.39812
[2], x2 = 0.7904	–	–	–	–	1.40314	1.39948	1.39565	1.39141
[2], x2 = 0.85	–	–	–	–	1.39619	1.39265	1.38892	1.38471
[2], x2 = 0.904	–	–	–	–	1.38928	1.38579	1.38209	1.37787
[2], x2 = 0.9541	–	–	–	–	1.38224	1.37859	1.37474	1.37035

CNC1CCCCC1 [N-methylcyclohexylamine] + CCC(C)O
Details	mass density, 298.15 K [kg/m3]	mass density, 308.15 K [kg/m3]	mass density, 318.15 K [kg/m3]	mass density, 328.15 K [kg/m3]	refractive index, 298.15 K	refractive index, 308.15 K	refractive index, 318.15 K	refractive index, 328.15 K
[1], x2 = 0	865.2	856.57	847.67	838.68	–	–	–	–
[1], x2 = 0.1217	861.95	853.4	844.58	835.58	–	–	–	–
[1], x2 = 0.2333	858.47	849.82	840.98	831.86	–	–	–	–
[1], x2 = 0.3367	854.47	845.86	836.97	827.75	–	–	–	–
[1], x2 = 0.4323	850	841.4	832.5	823.2	–	–	–	–
[1], x2 = 0.5211	845.14	836.51	827.6	818.27	–	–	–	–
[1], x2 = 0.603	840.01	831.35	822.48	813.01	–	–	–	–
[1], x2 = 0.6803	834.52	825.88	817.02	807.46	–	–	–	–
[1], x2 = 0.7528	828.72	820.14	811.27	801.72	–	–	–	–
[1], x2 = 0.8202	822.7	814.18	805.33	795.72	–	–	–	–
[1], x2 = 0.8827	816.47	807.88	799.18	789.6	–	–	–	–
[1], x2 = 0.9426	809.83	801.25	792.58	782.94	–	–	–	–
[2], x2 = 0	–	–	–	–	1.45306	1.44812	1.4431	1.43809
[2], x2 = 0.1217	–	–	–	–	1.44931	1.44493	1.44047	1.43597
[2], x2 = 0.2333	–	–	–	–	1.44578	1.44144	1.43701	1.43258
[2], x2 = 0.3367	–	–	–	–	1.44206	1.43776	1.4334	1.42907
[2], x2 = 0.4323	–	–	–	–	1.43795	1.43374	1.42946	1.4252
[2], x2 = 0.5211	–	–	–	–	1.43338	1.42927	1.42503	1.42076
[2], x2 = 0.603	–	–	–	–	1.42849	1.42444	1.42021	1.41587
[2], x2 = 0.6803	–	–	–	–	1.42326	1.41926	1.41502	1.41065
[2], x2 = 0.7528	–	–	–	–	1.41783	1.41387	1.40967	1.40535
[2], x2 = 0.8202	–	–	–	–	1.41236	1.40841	1.40429	1.4001
[2], x2 = 0.8827	–	–	–	–	1.40689	1.40292	1.39886	1.39478
[2], x2 = 0.9426	–	–	–	–	1.40126	1.39719	1.39303	1.38886

CNC1CCCCC1 [N-methylcyclohexylamine] + CCCC(C)O
Details	mass density, 298.15 K [kg/m3]	mass density, 308.15 K [kg/m3]	mass density, 318.15 K [kg/m3]	mass density, 328.15 K [kg/m3]	refractive index, 298.15 K	refractive index, 308.15 K	refractive index, 318.15 K	refractive index, 328.15 K
[1], x2 = 0	865.2	856.57	847.67	838.68	–	–	–	–
[1], x2 = 0.1044	861.35	852.83	844.04	835.12	–	–	–	–
[1], x2 = 0.2039	857.57	849.03	840.23	831.28	–	–	–	–
[1], x2 = 0.3	853.62	845.09	836.29	827.28	–	–	–	–
[1], x2 = 0.391	849.43	840.92	832.15	823.1	–	–	–	–
[1], x2 = 0.4776	844.86	836.35	827.59	818.52	–	–	–	–
[1], x2 = 0.5621	839.71	831.21	822.49	813.38	–	–	–	–
[1], x2 = 0.6395	834.44	825.96	817.29	808.15	–	–	–	–
[1], x2 = 0.7115	829.18	820.72	812.03	802.91	–	–	–	–
[1], x2 = 0.7926	822.85	814.43	805.84	796.73	–	–	–	–
[1], x2 = 0.8644	817.04	808.68	800.16	791.09	–	–	–	–
[1], x2 = 0.9338	811.24	802.9	794.42	785.33	–	–	–	–
[2], x2 = 0	–	–	–	–	1.45306	1.44812	1.4431	1.43809
[2], x2 = 0.1044	–	–	–	–	1.45003	1.44535	1.44061	1.4359
[2], x2 = 0.2039	–	–	–	–	1.44678	1.44217	1.43745	1.43273
[2], x2 = 0.3	–	–	–	–	1.44339	1.43884	1.43417	1.42945
[2], x2 = 0.391	–	–	–	–	1.43985	1.43539	1.43078	1.42612
[2], x2 = 0.4776	–	–	–	–	1.43608	1.43168	1.42715	1.42254
[2], x2 = 0.5621	–	–	–	–	1.43195	1.42759	1.42311	1.41857
[2], x2 = 0.6395	–	–	–	–	1.42779	1.42345	1.419	1.41449
[2], x2 = 0.7115	–	–	–	–	1.42361	1.41932	1.4149	1.41042
[2], x2 = 0.7926	–	–	–	–	1.41862	1.41442	1.41007	1.40562
[2], x2 = 0.8644	–	–	–	–	1.41398	1.40989	1.40561	1.40119
[2], x2 = 0.9338	–	–	–	–	1.40928	1.40524	1.40097	1.39653
